Data published in patent publication US4251543A, “2-(p-Prenylphenyl)propionic acid” (priority 1978, dated 1981).

Assays:
[1] = tested on: rat paw edema; experiment: Anti-inflammatory activity, rat paw edema (carrageenin); type: in vivo, rat (male Wistar); details: p.o., three hours after injection of carrageenin
Protocol: (§1) Anti-inflammatory activity was evaluated by the method of rat paw edema(Winter et al., J. Pharmacol. Exp. Ther., 141, 369(1963)). Six male Wistar strain rats were used in each group and a volume of the each paw was measured three hours after injection of carrageenin.

[2] = tested on: acetic acid writhing; experiment: Analgesic activity, acetic acid writhing test; type: in vivo, mouse (male ddY); details: p.o.
Excerpt: Male ddY strain mice in groups of ten each were used for the evaluation of analgesic activity by acetic acid writhing test(Koster et al., Federation Proc., 18, 412(1959)).

[3] = tested on: red blood cell and hemoglobin; experiment: Hematological findings after 10 days administration; type: in vivo, rat (male Wister); details: for effect on hemoglobin count (in words) / effect on red blood cell count (in words): 50, 100 or 200 mg/Kg orally once a day, 10 days; for hemoglobin / red blood cell: p.o., day one after 10 days administration, mean ± S.E.
Protocol: (§2) The test compound was suspended in 0.4% CMC solution in an appropriate concentration, and was administered orally once a day at the definite dose (50, 100 or 200 mg/Kg) in each 10 male Wister rats. Additional 10 control rats were received an equivalent volume of the vehicle. […] In those tables, the values of body weight, red blood cell and hemoglobin are mean ± S.E.

[4] = tested on: liver weight; experiment: Liver weight per 100 g of the test rat; type: in vivo, rat (male Wistar); details: 100 + 200 mg/Kg, p.o., mean ± S.E.
Protocol: as §1
Immediately after the completion of the test described in Experiment 1, the test compound was orally administered to the test rats in a dose twice the dose administered in Experiment 1, and fasting was continued for 18 hours prior to autopsy and evaluation of gastric lesions and liver weight per 100 g of the test rat. The gastric lesions induced were expressed as incidence(number of rats with gastric lesions/number of the rats) and lesion index(sum of areas damaged). The results are shown in Table 3, wherein the values of lesion index and liver weight are mean ± S.E.

[5] = tested on: gastric lesions; experiment: Gastric lesions after oral administration; type: in vivo, rat (male Wistar); details: 100 + 200 mg/Kg, p.o.; for lesion index (sum of areas damaged): mean ± S.E.
Protocol: Anti-inflammatory activity was evaluated by the method of rat paw edema(Winter et al., J. Pharmacol. Exp. Ther., 141, 369(1963)). Six male Wistar strain rats were used in each group and a volume of the each paw was measured three hours after injection of carrageenin. […] The gastric lesions induced were expressed as incidence(number of rats with gastric lesions/number of the rats) and lesion index(sum of areas damaged). The results are shown in Table 3, wherein the values of lesion index and liver weight are mean ± S.E.

[6] = Changes of body weight, repeated oral administration; type: in vivo, rat (male Wister); details: for body weight before treatment: before treatment (baseline); for body weight before treatment / body weight after 5 days / body weight after 10 days: mean ± S.E.; for body weight after 5 days / body weight after 10 days: orally
Protocol: as §2

SMILES	inhibition (%) ([1]; 50 mg/Kg)	inhibition (%) ([1]; 100 mg/Kg)	inhibition (%) ([1]; 200 mg/Kg)	inhibition (%) ([2]; 50 mg/Kg)	inhibition (%) ([2]; 100 mg/Kg)	inhibition (%) ([2]; 200 mg/Kg)	effect on hemoglobin count (in words) [3]	effect on red blood cell count (in words) [3]	liver weight [4] [g]	lesion index (sum of areas damaged) [5] [mm^2]	other results
CC(C)Cc1ccc(C(C)C(=O)O)cc1 (stereo not shown) [ibuprofen, reference compound]	37.9	49.5	52.9	18.6	37.5	53.8	significant decrease	significant decrease			
CCCCC1C(=O)N(c2ccccc2)N(c2ccccc2)C1=O [phenylbutazone, reference compound]									4.23 ± 0.09	4.59 ± 1.35	
CC(C)=CCc1ccc(C(C)C(=O)O)cc1 (stereo not shown) [TA-060, 2-[p-(3-methyl-2-butenyl)phenyl]propionic acid]	35.9	46.5	52.1	37.3	40.0	62.7	no effect	no effect	3.56 ± 0.04	0	gastric lesion incidence (number of rats with gastric lesions/number of the rats) ([5]; fasting 18 hours prior to autopsy): 0/12; body weight before treatment ([6]; 50 mg/Kg/day group): 211.5 ± 3.6 gram; body weight after 5 days ([6]; 50 mg/Kg/day): 224.6 ± 3.6 gram; body weight after 10 days ([6]; 50 mg/Kg/day): 239.7 ± 3.2 gram; body weight before treatment ([6]; 100 mg/Kg/day group): 210.0 ± 2.5 gram; body weight after 5 days ([6]; 100 mg/Kg/day): 226.4 ± 2.8 gram; body weight after 10 days ([6]; 100 mg/Kg/day): 238.5 ± 2.3 gram; body weight before treatment ([6]; 200 mg/Kg/day group): 211.7 ± 3.1 gram; body weight after 10 days ([6]; 200 mg/Kg/day, **p <0.001): 238.3 ± 5.1 gram; body weight after 5 days ([6]; 200 mg/Kg/day, *p <0.01): 221.9 ± 4.6 gram; effect on body weight gain (in words) ([6]; 50, 100 or 200 mg/Kg orally once a day, 10 days): no effect; hemoglobin ([3]; 50 mg/Kg): 15.2 ± 0.1 g/dL; red blood cell ([3]; 50 mg/Kg, *p <0.05): 864.2 ± 20.2 × 10^4 /mm^3; hemoglobin ([3]; 100 mg/Kg, ***p <0.001): 15.1 ± 0.2 g/dL; red blood cell ([3]; 100 mg/Kg, **p <0.01): 860.8 ± 9.5 × 10^4 /mm^3; hemoglobin ([3]; 200 mg/Kg, ***p <0.001): 15.0 ± 0.2 g/dL; red blood cell ([3]; 200 mg/Kg, **p <0.01): 857.9 ± 15.2 × 10^4 /mm^3
